Data taken from PubChem BioAssay AID1963972 (Molecular Pharmacology Branch, DTP, NCI, 2024).

Tested on: 945468-187-T-J2-PDC spheroids viability
Test: Anticancer human tumor 945468-187-T-J2-PDC patient-derived rectal carcinoma cell line growth inhibition [PI3K]
Details: spheroids with HUVEC and MSC; for IC50: curve of first compound; for viability, T/C: stronger effect = lower value; active = viability on the fitted dose curve at most 10% of control; inactive = the rest
Summary of the method: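 Combination activity was assessed by viability in multicellular tumor spheroids carrying HUVEC and MSC components. Agents were tested with PI3K inhibitors from a Cmax-based top dose (or 10 microM) downward in half-log increments.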
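Also: spheroids exposed to compounds for seven days before reading.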

CC1(C)CCC(Nc2ncc(C(F)(F)F)c(-c3c[nH]c4c(P(C)(C)=O)c(C#N)ccc34)n2)CN1 (centres undefined) + CC(Nc1ccc2c(c1)OCCn1cc(N3C(=O)OCC3C(F)F)nc1-2)C(N)=O
0.896 µM: IC50 (second compound 0.316 µM)
4.24 µM: IC50 (second compound 1 µM)
1.06 µM: IC50 (second compound 0.1 µM)
2.11 µM: IC50 (second compound 0.0316 µM)
inactive: viability, T/C (second compound 0.00316 µM, first compound 0.0316 µM) 96% | viability, T/C (second compound 0.00316 µM, first compound 0.1 µM) 115% | viability, T/C (second compound 0.00316 µM, first compound 0.316 µM) 71.8% | viability, T/C (second compound 0.00316 µM, first compound 1 µM) 50.2% | viability, T/C (second compound 0.00316 µM, first compound 3.16 µM) 34.2% | viability, T/C (second compound 0.00316 µM, first compound 10 µM) 49.6% | viability, T/C (second compound 0.01 µM, first compound 0.0316 µM) 91.6% | viability, T/C (second compound 0.01 µM, first compound 0.1 µM) 92.7% | viability, T/C (second compound 0.01 µM, first compound 0.316 µM) 88.8% | viability, T/C (second compound 0.01 µM, first compound 1 µM) 52.5% | viability, T/C (second compound 0.01 µM, first compound 3.16 µM) 40.5% | viability, T/C (second compound 0.01 µM, first compound 10 µM) 42.7% | viability, T/C (second compound 0.0316 µM, first compound 0.0316 µM) 82.2% | viability, T/C (second compound 0.0316 µM, first compound 0.1 µM) 98.3% | viability, T/C (second compound 0.0316 µM, first compound 0.316 µM) 61.1% | viability, T/C (second compound 0.0316 µM, first compound 1 µM) 64.3% | viability, T/C (second compound 0.0316 µM, first compound 3.16 µM) 42.9% | viability, T/C (second compound 0.0316 µM, first compound 10 µM) 43.8% | viability, T/C (second compound 0.1 µM, first compound 0.0316 µM) 105% | viability, T/C (second compound 0.1 µM, first compound 0.1 µM) 91% | viability, T/C (second compound 0.1 µM, first compound 0.316 µM) 81% | viability, T/C (second compound 0.1 µM, first compound 1 µM) 48.5% | viability, T/C (second compound 0.1 µM, first compound 3.16 µM) 41.8% | viability, T/C (second compound 0.1 µM, first compound 10 µM) 51.4% | viability, T/C (second compound 0.316 µM, first compound 0.0316 µM) 77.5% | viability, T/C (second compound 0.316 µM, first compound 0.1 µM) 103% | viability, T/C (second compound 0.316 µM, first compound 0.316 µM) 89.3% | viability, T/C (second compound 0.316 µM, first compound 1 µM) 45.8% | viability, T/C (second compound 0.316 µM, first compound 3.16 µM) 39.8% | viability, T/C (second compound 0.316 µM, first compound 10 µM) 31.6% | viability, T/C (second compound 1 µM, first compound 0.0316 µM) 85.3% | viability, T/C (second compound 1 µM, first compound 0.1 µM) 76.3% | viability, T/C (second compound 1 µM, first compound 0.316 µM) 67.3% | viability, T/C (second compound 1 µM, first compound 1 µM) 65.7% | viability, T/C (second compound 1 µM, first compound 3.16 µM) 54.6% | viability, T/C (second compound 1 µM, first compound 10 µM) 40.1%
1.31 µM: IC50 (second compound 0.01 µM)
0.798 µM: IC50 (second compound 0.00316 µM)

Cn1cnc2c(F)c(Nc3ccc(Br)cc3Cl)c(C(=O)NOCCO)cc21 + CC(Nc1ncnc2nc[nH]c12)c1cc2cccc(Cl)c2c(=O)n1-c1ccccc1
> 3 µM: IC50 (second compound 0.0316 µM) | IC50 (second compound 0.1 µM) | IC50 (second compound 0.316 µM) | IC50 (second compound 1 µM) | IC50 (second compound 3.16 µM) | IC50 (second compound 10 µM)
inactive: viability, T/C (second compound 0.0316 µM, first compound 0.00949 µM) 100% | viability, T/C (second compound 0.0316 µM, first compound 0.03 µM) 103% | viability, T/C (second compound 0.0316 µM, first compound 0.0949 µM) 84.1% | viability, T/C (second compound 0.0316 µM, first compound 0.3 µM) 92.8% | viability, T/C (second compound 0.0316 µM, first compound 0.949 µM) 92% | viability, T/C (second compound 0.0316 µM, first compound 3 µM) 73.7% | viability, T/C (second compound 0.1 µM, first compound 0.00949 µM) 99.3% | viability, T/C (second compound 0.1 µM, first compound 0.03 µM) 82.1% | viability, T/C (second compound 0.1 µM, first compound 0.0949 µM) 85.1% | viability, T/C (second compound 0.1 µM, first compound 0.3 µM) 93% | viability, T/C (second compound 0.1 µM, first compound 0.949 µM) 83.1% | viability, T/C (second compound 0.1 µM, first compound 3 µM) 74% | viability, T/C (second compound 0.316 µM, first compound 0.00949 µM) 111% | viability, T/C (second compound 0.316 µM, first compound 0.03 µM) 90.8% | viability, T/C (second compound 0.316 µM, first compound 0.0949 µM) 92.4% | viability, T/C (second compound 0.316 µM, first compound 0.3 µM) 91.8% | viability, T/C (second compound 0.316 µM, first compound 0.949 µM) 81.5% | viability, T/C (second compound 0.316 µM, first compound 3 µM) 80.3% | viability, T/C (second compound 1 µM, first compound 0.00949 µM) 122% | viability, T/C (second compound 1 µM, first compound 0.03 µM) 106% | viability, T/C (second compound 1 µM, first compound 0.0949 µM) 79.7% | viability, T/C (second compound 1 µM, first compound 0.3 µM) 88.3% | viability, T/C (second compound 1 µM, first compound 0.949 µM) 81.8% | viability, T/C (second compound 1 µM, first compound 3 µM) 82.7% | viability, T/C (second compound 3.16 µM, first compound 0.00949 µM) 81.6% | viability, T/C (second compound 3.16 µM, first compound 0.03 µM) 94.3% | viability, T/C (second compound 3.16 µM, first compound 0.0949 µM) 104% | viability, T/C (second compound 3.16 µM, first compound 0.3 µM) 107% | viability, T/C (second compound 3.16 µM, first compound 0.949 µM) 81.7% | viability, T/C (second compound 3.16 µM, first compound 3 µM) 79.9% | viability, T/C (second compound 10 µM, first compound 0.00949 µM) 92.7% | viability, T/C (second compound 10 µM, first compound 0.03 µM) 94.1% | viability, T/C (second compound 10 µM, first compound 0.0949 µM) 97.9% | viability, T/C (second compound 10 µM, first compound 0.3 µM) 91.5% | viability, T/C (second compound 10 µM, first compound 0.949 µM) 83.8% | viability, T/C (second compound 10 µM, first compound 3 µM) 72%
